Results as given in ChEMBL document CHEMBL1139660, “Imidazo[1,2-b][1,2,4]triazines as alpha2/alpha3 subtype selective GABA A agonists for the treatment of anxiety” (Bioorg Med Chem Lett, 2006).

Columns and labels:
[1] = molecular target: T1, GABA-A receptor; alpha-1/beta-3/gamma-2 (Homo sapiens) (UniProt P14867+P18507+P28472); assay: Efficacy against recombinant human GABA-Aalpha1 receptor plus beta-3-gamma-2 expressed in L(tk-) cells by modulation of chloride ion flux relative to chlordiazepoxide; assay type: cell-based
[2] = molecular target: T2, GABA-A receptor; alpha-3/beta-3/gamma-2 (Homo sapiens) (UniProt P18507+P28472+P34903); assay: Efficacy against recombinant human GABA-Aalpha3 receptor plus beta-3-gamma-2 expressed in L(tk-) cells by modulation of chloride ion flux relative to chlordiazepoxide; assay type: functional, cell-based
[3] = molecular target: T1, GABA-A receptor; alpha-1/beta-3/gamma-2 (Homo sapiens); assay: Efficacy against recombinant human GABA-Aalpha1 receptor plus beta-3-gamma-2 expressed in L(tk-) cells by whole cell patch clamp method; assay type: functional, cell-based
[4] = molecular target: T2, GABA-A receptor; alpha-3/beta-3/gamma-2 (Homo sapiens); assay: Efficacy against recombinant human GABA-Aalpha3 receptor plus beta-3-gamma-2 expressed in L(tk-) cells by whole cell patch clamp method relative to chlordiazepoxide; assay type: functional, cell-based
[5] = tested on: Rattus norvegicus; assay: Plasma clearance in Sprague-Dawley rat at 1 mg/kg, iv or 1 mg/kg, po; assay type: organism-based
[6] = Volume of distribution in Sprague-Dawley rat at 1 mg/kg, iv or 1 mg/kg, po; assay type: ADME, organism-based; conditions: in vivo, read-out: Vdss
[7] = Oral bioavailability in Beagle dog at 1 mg/kg, iv or 1 mg/kg, po; assay type: ADME, organism-based, Canis lupus familiaris; conditions: in vivo
[8] = Plasma clearance in Beagle dog at 1 mg/kg, iv or 1 mg/kg, po; assay type: ADME, organism-based, Canis lupus familiaris
[9] = Half life in Beagle dog at 1 mg/kg, iv or 1 mg/kg, po; assay type: ADME, organism-based, Canis lupus familiaris; conditions: in vivo
[10] = Volume of distribution in Beagle dog at 1 mg/kg, iv or 1 mg/kg, po; assay type: ADME, organism-based, Canis lupus familiaris; conditions: in vivo, read-out: Vdss
[11] = molecular target: T3, GABA-A receptor; alpha-5/beta-3/gamma-2 (Homo sapiens, UniProt P18507+P28472+P31644); assay: Displacement of [3H]Ro 15-1788 from recombinant human GABA-Aalpha5 receptor plus beta-3-gamma-2 expressed in L(tk-) cells; assay type: cell-based
T3 sequence (P18507 whole entry): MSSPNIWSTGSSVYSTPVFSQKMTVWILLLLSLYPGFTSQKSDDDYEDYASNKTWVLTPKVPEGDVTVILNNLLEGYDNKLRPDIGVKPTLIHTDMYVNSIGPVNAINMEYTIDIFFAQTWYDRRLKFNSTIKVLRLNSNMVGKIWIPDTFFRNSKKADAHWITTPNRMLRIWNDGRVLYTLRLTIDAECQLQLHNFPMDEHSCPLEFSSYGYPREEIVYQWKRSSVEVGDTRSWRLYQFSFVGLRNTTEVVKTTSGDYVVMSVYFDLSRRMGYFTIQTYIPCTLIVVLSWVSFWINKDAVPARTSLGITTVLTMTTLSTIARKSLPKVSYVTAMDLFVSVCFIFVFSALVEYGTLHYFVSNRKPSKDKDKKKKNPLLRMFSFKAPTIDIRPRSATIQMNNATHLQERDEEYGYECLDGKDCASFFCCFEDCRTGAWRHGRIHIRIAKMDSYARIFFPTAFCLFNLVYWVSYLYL
T3 sequence (P28472 whole entry): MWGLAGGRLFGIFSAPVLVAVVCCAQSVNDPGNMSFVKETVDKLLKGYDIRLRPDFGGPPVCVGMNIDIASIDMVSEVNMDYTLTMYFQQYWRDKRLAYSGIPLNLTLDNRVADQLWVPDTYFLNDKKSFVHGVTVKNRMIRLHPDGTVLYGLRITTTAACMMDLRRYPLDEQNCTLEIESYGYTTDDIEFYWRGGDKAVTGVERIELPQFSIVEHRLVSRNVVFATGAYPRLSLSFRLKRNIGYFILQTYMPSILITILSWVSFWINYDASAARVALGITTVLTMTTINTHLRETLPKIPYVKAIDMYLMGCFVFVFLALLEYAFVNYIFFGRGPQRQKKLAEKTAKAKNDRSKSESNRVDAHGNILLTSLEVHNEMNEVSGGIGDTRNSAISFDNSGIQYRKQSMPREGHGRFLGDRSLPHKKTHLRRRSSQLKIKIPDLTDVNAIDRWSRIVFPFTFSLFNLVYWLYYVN
T3 sequence (P31644 whole entry): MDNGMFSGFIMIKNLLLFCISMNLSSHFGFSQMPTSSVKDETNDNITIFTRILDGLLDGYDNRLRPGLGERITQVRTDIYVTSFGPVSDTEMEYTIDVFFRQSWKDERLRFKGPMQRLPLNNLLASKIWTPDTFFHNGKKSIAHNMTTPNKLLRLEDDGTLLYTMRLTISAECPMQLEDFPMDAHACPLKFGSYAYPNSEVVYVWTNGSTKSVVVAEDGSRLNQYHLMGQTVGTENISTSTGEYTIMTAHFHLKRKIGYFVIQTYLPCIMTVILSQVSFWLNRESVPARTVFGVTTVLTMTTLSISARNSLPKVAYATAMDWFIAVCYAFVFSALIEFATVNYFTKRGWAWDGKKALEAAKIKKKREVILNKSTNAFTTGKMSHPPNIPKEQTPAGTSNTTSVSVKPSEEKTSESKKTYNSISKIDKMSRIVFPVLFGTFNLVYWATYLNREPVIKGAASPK

[12] = molecular target: T4, GABA-A receptor; alpha-1/beta-3/gamma-2 (Homo sapiens, UniProt P14867+P18507+P28472); assay: Displacement of [3H]Ro 15-1788 from recombinant human GABA-Aalpha1 receptor plus beta3gamma2 expressed in mouse L(tk-) cells; assay type: cell-based
T4 sequence (P14867 whole entry): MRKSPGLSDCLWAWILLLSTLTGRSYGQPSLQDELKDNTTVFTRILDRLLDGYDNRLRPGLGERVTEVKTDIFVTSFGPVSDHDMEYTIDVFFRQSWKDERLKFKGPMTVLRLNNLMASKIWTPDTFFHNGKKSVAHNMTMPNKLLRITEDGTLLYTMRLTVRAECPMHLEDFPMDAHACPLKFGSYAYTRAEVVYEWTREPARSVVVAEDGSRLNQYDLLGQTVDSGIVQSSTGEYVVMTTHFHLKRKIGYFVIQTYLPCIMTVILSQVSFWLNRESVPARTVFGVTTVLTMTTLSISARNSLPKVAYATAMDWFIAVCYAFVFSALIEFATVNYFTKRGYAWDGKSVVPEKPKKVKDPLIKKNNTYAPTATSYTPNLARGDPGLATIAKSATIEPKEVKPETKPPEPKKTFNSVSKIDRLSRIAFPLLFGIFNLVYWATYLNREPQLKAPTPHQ
T4 sequence (P18507 whole entry): T3 sequence (P18507 whole entry)
T4 sequence (P28472 whole entry): T3 sequence (P28472 whole entry)

[13] = molecular target: T5, GABA-A receptor; alpha-2/beta-3/gamma-2 (Homo sapiens, UniProt P18507+P28472+P47869); assay: Displacement of [3H]Ro 15-1788 from recombinant human GABA-Aalpha2 receptor plus beta-3-gamma-2 expressed in mouse L(tk-) cells; assay type: cell-based
T5 sequence (P18507 whole entry): T3 sequence (P18507 whole entry)
T5 sequence (P28472 whole entry): T3 sequence (P28472 whole entry)
T5 sequence (P47869 whole entry): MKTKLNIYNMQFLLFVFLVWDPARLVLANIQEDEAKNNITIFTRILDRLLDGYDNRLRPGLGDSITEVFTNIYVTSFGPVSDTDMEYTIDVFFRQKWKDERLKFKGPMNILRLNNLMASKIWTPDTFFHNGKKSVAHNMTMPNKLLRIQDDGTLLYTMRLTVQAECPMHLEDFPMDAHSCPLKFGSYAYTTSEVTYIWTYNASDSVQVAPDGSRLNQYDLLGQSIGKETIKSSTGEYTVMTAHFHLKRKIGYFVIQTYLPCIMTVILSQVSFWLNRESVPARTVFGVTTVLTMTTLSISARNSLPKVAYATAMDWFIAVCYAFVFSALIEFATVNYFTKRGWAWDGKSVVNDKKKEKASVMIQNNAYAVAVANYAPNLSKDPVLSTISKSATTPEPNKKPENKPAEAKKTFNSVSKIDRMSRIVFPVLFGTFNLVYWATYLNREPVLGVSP

[14] = molecular target: T6, GABA-A receptor; alpha-3/beta-3/gamma-2 (Homo sapiens, UniProt P18507+P28472+P34903); assay: Displacement of [3H]Ro 15-1788 from recombinant human GABA-Aalpha3 receptor plus beta-3-gamma-2 expressed in L(tk-) cells; assay type: cell-based
T6 sequence (P18507 whole entry): T3 sequence (P18507 whole entry)
T6 sequence (P28472 whole entry): T3 sequence (P28472 whole entry)
T6 sequence (P34903 whole entry): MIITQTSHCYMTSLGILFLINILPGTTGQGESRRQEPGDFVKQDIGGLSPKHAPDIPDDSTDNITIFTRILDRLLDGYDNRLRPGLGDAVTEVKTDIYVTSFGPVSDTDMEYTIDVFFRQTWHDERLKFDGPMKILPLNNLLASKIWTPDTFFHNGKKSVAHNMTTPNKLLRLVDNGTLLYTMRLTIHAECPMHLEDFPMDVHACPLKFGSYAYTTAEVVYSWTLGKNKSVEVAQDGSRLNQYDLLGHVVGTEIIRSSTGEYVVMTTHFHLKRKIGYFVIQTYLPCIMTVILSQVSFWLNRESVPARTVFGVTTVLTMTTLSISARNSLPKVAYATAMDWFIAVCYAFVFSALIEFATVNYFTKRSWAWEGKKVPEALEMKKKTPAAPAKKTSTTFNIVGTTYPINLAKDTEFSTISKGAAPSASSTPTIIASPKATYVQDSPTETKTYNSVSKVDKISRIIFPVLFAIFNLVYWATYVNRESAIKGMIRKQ

[15] = molecular target: GABA-A receptor; alpha-2/beta-3/gamma-2 (Homo sapiens) (UniProt P18507+P28472+P47869); assay: Efficacy against recombinant human GABA-Aalpha2 receptor plus beta-3-gamma-2 expressed in L(tk-) cells by whole cell patch clamp method relative to chlordiazepoxide; assay type: functional, cell-based
[16] = molecular target: GABA-A receptor; alpha-5/beta-3/gamma-2 (Homo sapiens) (UniProt P18507+P28472+P31644); assay: Efficacy against recombinant human GABA-Aalpha5 receptor plus beta3gamma2 expressed in L(tk-) cells by whole cell patch clamp method relative to chlordiazepoxide; assay type: functional, cell-based
[17] = Oral bioavailability in Sprague-Dawley rat at 1 mg/kg, iv or 1 mg/kg, po; assay type: ADME, organism-based; conditions: in vivo
[18] = Half life in Sprague-Dawley rat at 1 mg/kg, iv or 1 mg/kg, po; assay type: ADME, organism-based; conditions: in vivo

Efficacy [1]	Efficacy [2]	Efficacy [3]	Efficacy [4]	Vd [6] [L/kg]	bioavailability [7] [%]	clearance [8] [mL/min/kg]	half-life [9] [h]	Vd [10] [L/kg]	Ki [11] [nM]	Ki [12] [nM]	Ki [13] [nM]	Ki [14] [nM]	Efficacy [15]	Efficacy [16]	bioavailability [17] [%]	half-life [18] [h]	Structure (SMILES)	CL (mL.min-1.kg-1) [5]
0.06	0.5	0.05	0.53	1	46	8.1	1	0.6	–	–	–	–	–	–	–	–	CC(C)(O)c1ccn2c(-c3ccc(F)c(-c4cccnc4)c3)cnc2n1	9.1
–	–	0	0.37	–	–	–	–	–	0.32	0.76	1.54	1.06	0.23	0.41	–	–	CC(C)(O)c1cnn2c(-c3ccc(F)c(-c4ccncc4C#N)c3)cnc2n1	–
–	–	0.01	0.34	–	–	–	–	–	–	0.67	–	3.3	–	–	–	–	CC(C)(O)c1cnn2c(-c3ccc(F)c(-c4ncncc4C#N)c3)cnc2n1	–
0.3	0.59	–	–	–	–	–	–	–	0.14	0.6	–	0.28	–	–	–	–	CC(C)(O)c1ccn2c(-c3ccc(F)c(-c4ccncc4C#N)c3)cnc2n1	–
–	–	0.15	0.5	–	–	–	–	–	1.24	1.45	2.3	2.77	–	–	–	–	CC(C)(O)c1cnn2c(-c3ccc(F)c(-c4ccc(F)cn4)c3)cnc2n1	–
–	–	0.01	0.69	1.7	99	2.2	9.7	1.5	9.34	1.28	8.43	9.53	0.37	0.2	102	7.9	CC(C)(O)c1cnn2c(-c3ccc(F)c(-c4ncccc4C#N)c3)cnc2n1	2.4
0.18	0.47	0.42	–	–	–	–	–	–	0.31	0.68	–	2.25	–	–	–	–	CC(C)(O)c1ccn2c(-c3ccc(F)c(-c4ccncc4)c3)cnc2n1	–
–	–	0	0.24	–	–	–	–	–	0.5	0.81	–	1.63	–	–	–	–	CC(C)(O)c1cnn2c(-c3ccc(F)c(-c4cccnc4)c3)cnc2n1	–
0.26	0.52	–	–	–	–	–	–	–	0.67	1.43	–	3.64	–	–	–	–	CC(C)(O)c1ccn2c(-c3ccc(F)c(-c4ncccc4C#N)c3)cnc2n1	–
0.44	0.68	–	–	–	–	–	–	–	1.24	0.8	–	0.42	–	–	–	–	CC(C)(O)c1ccn2c(-c3ccc(F)c(-c4ncccc4F)c3)cnc2n1	–
0.38	0.57	0.4	–	–	–	–	–	–	0.42	1.6	–	1.94	–	–	–	–	CC(C)(O)c1ccn2c(-c3ccc(F)c(-c4ccc(F)cn4)c3)cnc2n1	–
–	–	0.24	0.52	–	–	–	–	–	1.57	2.01	–	3.42	–	–	–	–	CC(C)(O)c1cnn2c(-c3ccc(F)c(-c4ncccc4F)c3)cnc2n1	–
–	–	0	0.5	2.2	64	0.5	–	2.3	2.71	0.67	3.44	4.5	0.39	0.09	69	22	CC(C)(O)c1cnn2c(-c3ccc(F)c(-c4ncc(F)cc4F)c3)cnc2n1	1.2
0.18	0.21	–	–	–	–	–	–	–	1.13	1.79	–	3.76	–	–	–	–	CC(C)(O)c1ccn2c(-c3ccc(F)c(-c4ncc(F)cc4F)c3)cnc2n1	–
–	–	0.06	–	–	–	–	–	–	0.5	0.55	0.92	0.52	–	–	–	–	CC(C)(O)c1cnn2c(-c3ccc(F)c(-c4ccncc4)c3)cnc2n1	–
